This passage reports IC50 results from patent US9617271B2, “Triazolo compounds” (Hoffmann-La Roche Inc., priority 2012, dated 2017).

Usually IC50 stands for the concentration that inhibits the measured activity by half.

The assay has as its target human PDE10A (Homo sapiens (Human), UniProt Q9Y233). Kind of assay: human PDE10A full length assay ([3H]-cGMP SPA). The format is biochemical. The settings on record: human PDE10A full length enzyme, 50 nM cGMP + 50 nM [3H]-cGMP, 20 minutes at room temperature; read-out: PDE10A inhibition IC50. How it is done:
The human PDE10A full length assay was performed in 96-well micro titer plates. The reaction mixture of 50 μl contained 20 mM HEPES pH=7.5/10 mM MgCl2/0.05 mg/ml BSA (Sigma cat. #A-7906), 50 nM cGMP (Sigma, cat. #G6129) and 50 nM [3H]-cGMP (GE Healthcare, cat. #TRK392 S.A. 13.2 Ci/mmol), 3.75 ng/well PDE10A enzyme (Enzo Life Science, Lausen, Switzerland cat #SE-534) with or without a specific test compound. A range of concentrations of the potential inhibitor was used to generate data for calculating the concentration of inhibitor resulting in 50% of the effect (e.g. IC50, the concentration of the competitor inhibiting PDE10A activity by 50%). Non-specific activity was tested without the enzyme. The reaction was initiated by the addition of the substrate solution (cGMP and [3H]-cGMP) and allowed to progress for 20 minutes at room temperature. The reaction was terminated by adding 25 μl of YSi-SPA scintillation beads (GE Healthcare, cat. #RPNQ0150) in 18 mM zinc sulphate solution (stop reagent). After 1 h under shaking, the plate was centrifuged one minute at 170 g to allow beads to settle. Afterwards, radioactive counts were measured on a Perkin Elmer TopCount Scintillation plate reader.

Chain of human PDE10A (Q9Y233 other isoform, or with tags, fused parts or gaps): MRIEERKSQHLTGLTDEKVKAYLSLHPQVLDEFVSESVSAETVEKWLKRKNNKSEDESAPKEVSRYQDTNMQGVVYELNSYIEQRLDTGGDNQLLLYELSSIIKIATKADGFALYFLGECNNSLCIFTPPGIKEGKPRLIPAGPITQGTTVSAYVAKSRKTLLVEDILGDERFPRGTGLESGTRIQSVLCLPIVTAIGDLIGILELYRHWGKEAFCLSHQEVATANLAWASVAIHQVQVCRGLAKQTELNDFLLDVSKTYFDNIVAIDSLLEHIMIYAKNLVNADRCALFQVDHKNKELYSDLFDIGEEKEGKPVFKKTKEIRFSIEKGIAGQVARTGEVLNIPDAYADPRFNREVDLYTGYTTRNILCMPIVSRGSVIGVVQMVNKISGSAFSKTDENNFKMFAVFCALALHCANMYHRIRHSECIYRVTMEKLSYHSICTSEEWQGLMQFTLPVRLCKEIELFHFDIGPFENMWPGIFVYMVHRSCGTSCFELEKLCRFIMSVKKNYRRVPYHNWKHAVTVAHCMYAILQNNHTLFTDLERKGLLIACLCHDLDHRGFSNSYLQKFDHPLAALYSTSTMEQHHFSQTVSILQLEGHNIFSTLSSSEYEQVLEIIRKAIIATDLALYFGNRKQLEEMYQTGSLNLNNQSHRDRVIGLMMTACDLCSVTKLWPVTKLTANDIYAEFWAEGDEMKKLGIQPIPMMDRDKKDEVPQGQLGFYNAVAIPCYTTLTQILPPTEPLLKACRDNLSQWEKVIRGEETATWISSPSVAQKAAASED

For the compound `Cc1nc2c(Cl)nc(CCc3nc(N4CCCC4)nn3C)nn2c1C` [Example 15, 4-Chloro-6,7-dimethyl-2-(2-(1-methyl-3-(pyrrolidin-1-yl)-1H-1,2,4-triazol-5-yl)ethyl)imidazo[1,2-f][1,2,4]triazine], the IC50 worked out at 4 nM.
Next, `Cc1c(C(F)(F)F)nn2ccc(C#Cc3nc(N4CCCC4)nn3C)nc12` [Example 71, 3-Methyl-5-[2-(2-methyl-5-pyrrolidin-1-yl-1,2,4-triazol-3-yl)ethynyl]-2-(trifluoromethyl)pyrazolo[1,5-a]pyrimidine]: 8.7 nM; `Cc1c(C#N)nc2ccc(/C=C/c3nc(N4CCCC4)nn3C)nn12` [Example 3, 3-Methyl-6-[(E)-2-(2-methyl-5-pyrrolidin-1-yl-2H-[1,2,4]triazol-3-yl)vinyl]-imidazo[1,2-b]pyridazine-2-carbonitrile]: 5 nM; `Cc1nc2ccc(SCc3nc(N4CCCC4)nn3C)nn2c1C` [Example 28, 2,3-Dimethyl-6-((1-methyl-3-(pyrrolidin-1-yl)-1H-1,2,4-triazol-5-yl)methylthio)-imidazo[1,2-b]pyridazine]: 568 nM.
Consider `Cc1nc2ccc(C#Cc3nc(N4CCCC4)nn3C)nn2c1Cl` [Example 65, 3-Chloro-2-methyl-6-((1-methyl-3-(pyrrolidin-1-yl)-1H-1,2,4-triazol-5-yl)ethynyl)imidazo[1,2-b]pyridazine], for which the IC50 is 2.5 nM.
With `CNC(=O)c1cc(CCc2nc(N3CCCC3)nn2C)nn2c(C)c(C(F)(F)F)nc12` [Example 70, N,3-dimethyl-6-(2-(1-methyl-3-(pyrrolidin-1-yl)-1H-1,2,4-triazol-5-yl)ethyl)-2-(trifluoromethyl)imidazo[1,2-b]pyridazine-8-carboxamide], the IC50 came out at 13.7 nM.
With `Cc1c(Cl)nc2ccc(CCc3nc(N4CCCC4)nn3C)nn12` [Example 64, 2-Chloro-3-methyl-6-(2-(1-methyl-3-(pyrrolidin-1-yl)-1H-1,2,4-triazol-5-yl)ethyl)imidazo[1,2-b]pyridazine], the IC50 came out at 5.5 nM.
As for `COc1cc(CCc2nc(N3CCCC3)nn2C)nn2c(C)c(C(F)(F)F)nc12` [Example 10, 8-Methoxy-3-methyl-6-(2-(1-methyl-3-(pyrrolidin-1-yl)-1H-1,2,4-triazol-5-yl)ethyl)-2-(trifluoromethyl)imidazo[1,2-b]pyridazine], the IC50 was 2 nM.
For `Cc1nn2ccc(C#Cc3nc(N4CCCC4)nn3C)nc2c1C` [Example 52, 2,3-Dimethyl-5-((1-methyl-3-(pyrrolidin-1-yl)-1H-1,2,4-triazol-5-yl)ethynyl)pyrazolo[1,5-a]pyrimidine], the IC50 was determined as 2.6 nM.
On to `Cc1nnc2ccc(CCc3nc(N4CCCC4)nn3C)nn12` [Example 57, 3-Methyl-6-(2-(1-methyl-3-(pyrrolidin-1-yl)-1H-1,2,4-triazol-5-yl)ethyl)[1,2,4]triazolo[4,3-b]pyridazine], for which the IC50 stood at 534 nM.
Turning to `Cc1nc2c(C3CCC3)cc(CCc3nc(N4CCCC4)nn3C)nn2c1C` [Example 48, 8-Cyclobutyl-2,3-dimethyl-6-(2-(1-methyl-3-(pyrrolidin-1-yl)-1H-1,2,4-triazol-5-yl)ethyl)imidazo[1,2-b]pyridazine], the IC50 is 2.3 nM.
As for `Cc1c(C(F)(F)F)nc2ccc(CCc3nc(N4CCCC4)n(C)n3)nn12` [Example 6, 3-Methyl-6-(2-(1-methyl-5-(pyrrolidin-1-yl)-1H-1,2,4-triazol-3-yl)ethyl)-2-(trifluoromethyl)imidazo[1,2-b]pyridazine], the IC50 worked out at 19 nM.
Next, `Cc1nc2ccc(CCc3nc(N4CCCC4)nn3C)nn2c1CO` [Example 21, (2-Methyl-6-(2-(1-methyl-3-(pyrrolidin-1-yl)-1H-1,2,4-triazol-5-yl)ethyl)imidazo[1,2-b]-pyridazin-3-yl)methanol]: 194 nM.
As for `Cc1nc2c(C(C)C)cc(CCc3nc(N4CCCC4)nn3C)nn2c1C` [Example 45, 8-Isopropyl-2,3-dimethyl-6-(2-(1-methyl-3-(pyrrolidin-1-yl)-1H-1,2,4-triazol-5-yl)ethyl)-imidazo[1,2-b]pyridazine], the figure is 9 nM; as for `COc1cc(/C=C/c2nc(N3CCCC3)nn2C)nn2c(C)c(C(F)(F)F)nc12` [Example 9, (E)-8-methoxy-3-methyl-6-(2-(1-methyl-3-(pyrrolidin-1-yl)-1H-1,2,4-triazol-5-yl)vinyl)-2-(trifluoromethyl)imidazo[1,2-b]pyridazine], 1 nM.
Consider `Cc1nc2c(N(C)C)nc(CCc3nc(N4CCCC4)nn3C)nn2c1C` [Example 22, N,N,6,7-Tetramethyl-2-(2-(1-methyl-3-(pyrrolidin-1-yl)-1H-1,2,4-triazol-5-yl)ethyl)-imidazo[1,2-f][1,2,4]triazin-4-amine], for which the IC50 was 2 nM.
`Cc1cn2nc(C)c(C)c2nc1CCc1nc(N2CCCC2)nn1C` [Example 61, 2,3,6-Trimethyl-5-(2-(1-methyl-3-(pyrrolidin-1-yl)-1H-1,2,4-triazol-5-yl)ethyl)pyrazolo[1,5-a]pyrimidine]: the IC50 was determined as 76 nM.
In the case of `Cc1nc2c3c(c(CCc4nc(N5CCCC5)nn4C)nn2c1C)CCCC3` [Example 24, 2,3-Dimethyl-6-(2-(1-methyl-3-(pyrrolidin-1-yl)-1H-1,2,4-triazol-5-yl)ethyl)-7,8,9,10-tetrahydroimidazo[2,1-a]phthalazine], the IC50 turned out to be 6 nM.
Turning to `Cc1nc2cc(C(F)(F)F)c(C#Cc3nc(N4CCCC4)nn3C)nn2c1C` [Example 42, 2,3-Dimethyl-6-((1-methyl-3-(pyrrolidin-1-yl)-1H-1,2,4-triazol-5-yl)ethynyl)-7-(trifluoro-methyl)imidazo[1,2-b]pyridazine], the IC50 amounted to 11 nM.
On to `Cc1nc2c(O)nc(CCc3nc(N4CCCC4)nn3C)nn2c1C` [Example 11, 6,7-Dimethyl-2-(2-(1-methyl-3-(pyrrolidin-1-yl)-1H-1,2,4-triazol-5-yl)ethyl)imidazo[1,2-f][1,2,4]triazin-4-ol], for which the IC50 stood at 225 nM.
Next, `CNC(=O)c1cc2nc(C)c(C)n2nc1C#Cc1nc(N2CCCC2)nn1C` [Example 39, N,2,3-Trimethyl-6-((1-methyl-3-(pyrrolidin-1-yl)-1H-1,2,4-triazol-5-yl)ethynyl)imidazo[1,2-b]pyridazine-7-carboxamide]: 1400 nM.
For the compound `Cc1cc(C#Cc2nc(N3CCCC3)nn2C)nn2c(C)c(C(F)(F)F)nc12` [Example 54, 3,8-Dimethyl-6-((1-methyl-3-(pyrrolidin-1-yl)-1H-1,2,4-triazol-5-yl)ethynyl)-2-(trifluoro-methyl)imidazo[1,2-b]pyridazine], the IC50 was 1.6 nM.
Take `Cc1c(C(F)(F)F)nn2ccc(CCc3nc(N4CCCC4)nn3C)nc12` [Example 72, 3-methyl-5-(2-(1-methyl-3-(pyrrolidin-1-yl)-1H-1,2,4-triazol-5-yl)ethyl)-2-(trifluoromethyl)pyrazolo[1,5-a]pyrimidine]: the IC50 amounted to 32.9 nM.
Take `CNC(=O)c1cc(CCc2nc(N3CCCC3)nn2C)nn2c(C)c(C)nc12` [Example 41, N,2,3-Trimethyl-6-(2-(1-methyl-3-(pyrrolidin-1-yl)-1H-1,2,4-triazol-5-yl)ethyl)imidazo-[1,2-b]pyridazine-8-carboxamide]: the IC50 is 2 nM.
Next, `Cc1nc2c(C(C)C)cc(C#Cc3nc(N4CCCC4)nn3C)nn2c1C` [Example 44, 8-Isopropyl-2,3-dimethyl-6-((1-methyl-3-(pyrrolidin-1-yl)-1H-1,2,4-triazol-5-yl)ethynyl)imidazo[1,2-b]pyridazine]: 1 nM.
In the case of `Cc1nc2c(OC(C)C)cc(/C=C/c3nc(N4CCCC4)nn3C)nn2c1C` [Example 26, (E)-8-Isopropoxy-2,3-dimethyl-6-(2-(1-methyl-3-(pyrrolidin-1-yl)-1H-1,2,4-triazol-5-yl)vinyl)imidazo[1,2-b]pyridazine], the IC50 amounted to 0.493 nM.
Turning to `Cc1nc2c(S(C)(=O)=O)cc(CCc3nc(N4CCCC4)nn3C)nn2c1C` [Example 33, 2,3-Dimethyl-6-(2-(1-methyl-3-(pyrrolidin-1-yl)-1H-1,2,4-triazol-5-yl)ethyl)-8-(methyl-sulfonyl)imidazo[1,2-b]pyridazine], the IC50 was 41 nM.
As for `Cc1nc2c(S(C)(=O)=O)cc(C#Cc3nc(N4CCCC4)nn3C)nn2c1C` [Example 29, 2,3-Dimethyl-6-((1-methyl-3-(pyrrolidin-1-yl)-1H-1,2,4-triazol-5-yl)ethynyl)-8-(methylsulfonyl)imidazo[1,2-b]pyridazine], the IC50 is 5 nM.
Take `CNC(=O)c1cc(C#Cc2nc(N3CCCC3)nn2C)nn2c(C)c(C)nc12` [Example 40, N,2,3-Trimethyl-6-((1-methyl-3-(pyrrolidin-1-yl)-1H-1,2,4-triazol-5-yl)ethynyl)imidazo-[1,2-b]pyridazine-8-carboxamide]: the IC50 is 1 nM.
As for `Cn1nc(N2CCCC2)nc1CCc1ccc2nc3c(n2n1)CCC3` [Example 14, 5-[2-(2-Methyl-5-pyrrolidin-1-yl-2H-[1,2,4]triazol-3-yl)-ethyl]-2,3-dihydro-1H-3b,4,8-triaza-cyclopenta[a]indene], the IC50 worked out at 41 nM.
On to `Cc1c(C(F)(F)F)nc2ccc(OCc3nc(N4CCCC4)nn3C)nn12` [Example 23, 3-Methyl-6-((1-methyl-3-(pyrrolidin-1-yl)-1H-1,2,4-triazol-5-yl)methoxy)-2-(trifluoro-methyl)imidazo[1,2-b]pyridazine], for which the IC50 was found to be 290 nM.
